{"source": "BigSolDB 2.1", "data": [{"smiles": "CCOC(=O)[C@@H](N)Cc1ccccc1.Cl", "values": [{"measurement": "solubility (mole fraction)", "setting": "in 1,4-dioxane, 288.15 K", "result": 0.0023}, {"measurement": "solubility (mole fraction)", "setting": "in 1,4-dioxane, 293.15 K", "result": 0.00301}, {"measurement": "solubility (mole fraction)", "setting": "in 1,4-dioxane, 298.15 K", "result": 0.0037}, {"measurement": "solubility (mole fraction)", "setting": "in 1,4-dioxane, 303.15 K", "result": 0.00498}, {"measurement": "solubility (mole fraction)", "setting": "in 1,4-dioxane, 308.15 K", "result": 0.00668}, {"measurement": "solubility (mole fraction)", "setting": "in 1,4-dioxane, 313.15 K", "result": 0.00876}, {"measurement": "solubility (mole fraction)", "setting": "in 1,4-dioxane, 318.15 K", "result": 0.0115}, {"measurement": "solubility (mole fraction)", "setting": "in 1,4-dioxane, 323.15 K", "result": 0.0148}, {"measurement": "solubility (mole fraction)", "setting": "in 2-butoxyethanol, 283.15 K", "result": 0.035}, {"measurement": "solubility (mole fraction)", "setting": "in 2-butoxyethanol, 288.15 K", "result": 0.039}, {"measurement": "solubility (mole fraction)", "setting": "in 2-butoxyethanol, 293.15 K", "result": 0.0435}, {"measurement": "solubility (mole fraction)", "setting": "in 2-butoxyethanol, 298.15 K", "result": 0.0473}, {"measurement": "solubility (mole fraction)", "setting": "in 2-butoxyethanol, 303.15 K", "result": 0.052}, {"measurement": "solubility (mole fraction)", "setting": "in 2-butoxyethanol, 308.15 K", "result": 0.0575}, {"measurement": "solubility (mole fraction)", "setting": "in 2-butoxyethanol, 313.15 K", "result": 0.0633}, {"measurement": "solubility (mole fraction)", "setting": "in 2-butoxyethanol, 318.15 K", "result": 0.0695}, {"measurement": "solubility (mole fraction)", "setting": "in 2-butoxyethanol, 323.15 K", "result": 0.076}, {"measurement": "solubility (mole fraction)", "setting": "in 2-propoxyethanol, 283.15 K", "result": 0.042}, {"measurement": "solubility (mole fraction)", "setting": "in 2-propoxyethanol, 288.15 K", "result": 0.0472}, {"measurement": "solubility (mole fraction)", "setting": "in 2-propoxyethanol, 293.15 K", "result": 0.052}, {"measurement": "solubility (mole fraction)", "setting": "in 2-propoxyethanol, 298.15 K", "result": 0.0557}, {"measurement": "solubility (mole fraction)", "setting": "in 2-propoxyethanol, 303.15 K", "result": 0.0616}, {"measurement": "solubility (mole fraction)", "setting": "in 2-propoxyethanol, 308.15 K", "result": 0.0675}, {"measurement": "solubility (mole fraction)", "setting": "in 2-propoxyethanol, 313.15 K", "result": 0.0738}, {"measurement": "solubility (mole fraction)", "setting": "in 2-propoxyethanol, 318.15 K", "result": 0.08}, {"measurement": "solubility (mole fraction)", "setting": "in 2-propoxyethanol, 323.15 K", "result": 0.087}, {"measurement": "solubility (mole fraction)", "setting": "in THF, 283.15 K", "result": 0.00079}, {"measurement": "solubility (mole fraction)", "setting": "in THF, 288.15 K", "result": 0.00102}, {"measurement": "solubility (mole fraction)", "setting": "in THF, 293.15 K", "result": 0.00127}, {"measurement": "solubility (mole fraction)", "setting": "in THF, 298.15 K", "result": 0.0016}, {"measurement": "solubility (mole fraction)", "setting": "in THF, 303.15 K", "result": 0.00204}, {"measurement": "solubility (mole fraction)", "setting": "in THF, 308.15 K", "result": 0.00257}, {"measurement": "solubility (mole fraction)", "setting": "in THF, 313.15 K", "result": 0.00316}, {"measurement": "solubility (mole fraction)", "setting": "in THF, 318.15 K", "result": 0.00398}, {"measurement": "solubility (mole fraction)", "setting": "in THF, 323.15 K", "result": 0.00491}, {"measurement": "solubility (mole fraction)", "setting": "in isopropanol, 283.15 K", "result": 0.0074}, {"measurement": "solubility (mole fraction)", "setting": "in isopropanol, 288.15 K", "result": 0.00934}, {"measurement": "solubility (mole fraction)", "setting": "in isopropanol, 293.15 K", "result": 0.0117}, {"measurement": "solubility (mole fraction)", "setting": "in isopropanol, 298.15 K", "result": 0.0147}, {"measurement": "solubility (mole fraction)", "setting": "in isopropanol, 303.15 K", "result": 0.0189}, {"measurement": "solubility (mole fraction)", "setting": "in isopropanol, 308.15 K", "result": 0.0227}, {"measurement": "solubility (mole fraction)", "setting": "in isopropanol, 313.15 K", "result": 0.0278}, {"measurement": "solubility (mole fraction)", "setting": "in isopropanol, 318.15 K", "result": 0.0337}, {"measurement": "solubility (mole fraction)", "setting": "in isopropanol, 323.15 K", "result": 0.0413}, {"measurement": "solubility (mole fraction)", "setting": "in n-butanol, 283.15 K", "result": 0.0176}, {"measurement": "solubility (mole fraction)", "setting": "in n-butanol, 288.15 K", "result": 0.0218}, {"measurement": "solubility (mole fraction)", "setting": "in n-butanol, 293.15 K", "result": 0.0262}, {"measurement": "solubility (mole fraction)", "setting": "in n-butanol, 298.15 K", "result": 0.032}, {"measurement": "solubility (mole fraction)", "setting": "in n-butanol, 303.15 K", "result": 0.0355}, {"measurement": "solubility (mole fraction)", "setting": "in n-butanol, 308.15 K", "result": 0.0417}, {"measurement": "solubility (mole fraction)", "setting": "in n-butanol, 313.15 K", "result": 0.0509}, {"measurement": "solubility (mole fraction)", "setting": "in n-butanol, 318.15 K", "result": 0.0601}, {"measurement": "solubility (mole fraction)", "setting": "in n-butanol, 323.15 K", "result": 0.0696}, {"measurement": "solubility (mole fraction)", "setting": "in n-propanol, 283.15 K", "result": 0.0272}, {"measurement": "solubility (mole fraction)", "setting": "in n-propanol, 288.15 K", "result": 0.0316}, {"measurement": "solubility (mole fraction)", "setting": "in n-propanol, 293.15 K", "result": 0.0367}, {"measurement": "solubility (mole fraction)", "setting": "in n-propanol, 298.15 K", "result": 0.0423}, {"measurement": "solubility (mole fraction)", "setting": "in n-propanol, 303.15 K", "result": 0.0491}, {"measurement": "solubility (mole fraction)", "setting": "in n-propanol, 308.15 K", "result": 0.0566}, {"measurement": "solubility (mole fraction)", "setting": "in n-propanol, 313.15 K", "result": 0.0656}, {"measurement": "solubility (mole fraction)", "setting": "in n-propanol, 318.15 K", "result": 0.0734}, {"measurement": "solubility (mole fraction)", "setting": "in n-propanol, 323.15 K", "result": 0.0838}]}]}
